SMILES strings stand for the structures.

These results are taken from patent publication US10370388B2, “Heterocyclic compounds and methods of their use” (NOVARTIS AG, priority 2012, dated 2019).

One assay concerns NG108-15 neurite cells. In words: AT2 receptor neurite outgrowth assay. The format is cell-based. The conditions noted are these: NG108-15 cells, in the presence of angiotensin II 0.1 μM, compound 0.003-10 μM. As to the method:
Biological Example 3: AT2 Receptor Neurite Outgrowth Assay
The general methodology of Wallinder (2008) and references cited therein was used to assess the effect of the compounds of the present invention on neurite outgrowth. The assay was adapted for high content screening.
EMA1087 is a known AT2 receptor agonist described as “compound 21” in Wan et al. 2004. PD-123,319 is a known, commercially available AT2 receptor antagonist. The results were analyzed by immunofluorescence quantitative analysis. Neurite outgrowth was quantified with neurite average length using Cellomics software. Results are expressed as the mean±SEM, each conducted in triplicate. Statistical significance, compared with Ang II control: *p<0.05, **p<0.01, and ***p<0.001. NS: no significant difference. ND: not determined. FIGS. 1 to 5 show neurite outgrowth was inhibited by the AT2 receptor antagonists, PD-126,055 and compounds 6, 15, 21 and 28.

The next assay concerns the target AT2 receptor (Homo sapiens (Human), UniProt P50052). Nature of the assay: AT2 receptor binding assay ([125I]-CGP42112A, HEK293/AT2 receptor cell membranes). The conditions noted are these: displacement of [125I]-CGP42112A. The protocol: Trypsin-EDTA (for preparation of 100 mL) • Trypsin 0.25 g • 2% EDTA 2 mL • PBS 98 mL • Dissolve trypsin in 2% EDTA and PBS completely; sterilize the solution by passing through a […] membrane filter; store at 4° C. • 2. […] Add slowly with stirring. • Dilute to 1 liter with ddH2O. • Sterilize the medium immediately by filtration. • Store at 4° C. • 3. TE buffer • 20 mM Tris-HCl, pH 7.4, • 5 mM EDTA • 4. Binding Assay Buffer • 50 mM Hepes, pH 7.4 • 5 mM MgCl2 • 1 mM CaCl2 • 0.2% BSA • 5.
Cells were ready for transfection after overnight incubation (the confluence reaches around 80%). • 75 μL Lipofectamine™2000 diluted in 6.25 mL OptiMEM I Reduced Serum Medium, was mixed gently, and incubated at room temperature for 5 minutes. 50 μg expression plasmid DNA diluted in 6.25 mL OptiMEM I Reduced Serum Medium without serum was mixed gently. • After the 5 minute incubation, the diluted DNA was combined with the diluted Lipofectamine™2000 (total volume is 12.5 mL).
Solutions of all compounds were prepared by microplate liquid handling equipment such as Janus or Precision 2000. Compounds, dissolved in DMSO were stored in a Freezer. Compounds were prepared from 30 mM in 100% DMSO.
All the compounds were diluted using Precision 2000 microplate liquid handling equipment. The top concentration of compound was 5 mM with 100% DMSO.
Step 3: Assay Plate Preparation (96 Well Plate)
(Displacement assays read how much labelled ligand stays bound in the presence of the test substance.)

The next assay concerns the target AT1 receptor (Homo sapiens (Human), UniProt P30556). Nature of the assay: AT1 receptor binding assay ([125I]-Sar1-Ile8-Angiotensin II, HEK293/AT1 receptor cell membranes). The conditions noted are these: similar assay, at 10 μM. The text has this: Biological Example 2: AT1 Receptor Binding
The same media, solutions, cell procedures and compound preparation was used as for Biological Example 1 but using HEK293/AT1 Receptor Transient Cells.

AT2 receptor, sequence (P50052 whole entry, species assumed): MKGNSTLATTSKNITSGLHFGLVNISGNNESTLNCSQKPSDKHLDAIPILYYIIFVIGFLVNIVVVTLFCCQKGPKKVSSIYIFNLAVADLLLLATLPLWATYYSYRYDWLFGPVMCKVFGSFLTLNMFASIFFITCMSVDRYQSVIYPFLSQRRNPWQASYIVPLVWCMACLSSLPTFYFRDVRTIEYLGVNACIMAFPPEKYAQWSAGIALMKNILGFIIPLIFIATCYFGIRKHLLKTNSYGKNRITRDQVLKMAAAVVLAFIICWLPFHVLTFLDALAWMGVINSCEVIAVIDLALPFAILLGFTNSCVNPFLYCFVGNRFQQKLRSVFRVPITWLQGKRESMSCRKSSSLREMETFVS
AT1 receptor, sequence (P30556 whole entry, species assumed): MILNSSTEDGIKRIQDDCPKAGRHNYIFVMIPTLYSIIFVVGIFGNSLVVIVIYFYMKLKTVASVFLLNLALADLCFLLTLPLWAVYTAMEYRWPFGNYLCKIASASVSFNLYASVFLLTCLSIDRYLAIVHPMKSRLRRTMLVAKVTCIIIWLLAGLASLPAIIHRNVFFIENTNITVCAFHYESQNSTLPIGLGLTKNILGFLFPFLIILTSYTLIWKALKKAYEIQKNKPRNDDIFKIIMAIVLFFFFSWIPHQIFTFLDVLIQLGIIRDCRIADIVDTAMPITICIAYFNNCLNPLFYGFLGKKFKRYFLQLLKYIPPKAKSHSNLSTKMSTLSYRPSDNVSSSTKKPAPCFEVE

Take `O=C(O)C1Cc2c(OCc3ccccc3)cccc2N1C(=O)C(c1ccccc1)c1ccccc1` (stereo not drawn) [Compound 15, 4-(benzyloxy)-1-(2,2-diphenylacetyl)indoline-2-carboxylic acid]: the “neurite outgrowth (neurite average length)” value in the assay with NG108-15 neurite cells was “inhibited”.
At AT2 receptor, `O=C(O)[C@@H]1C[C@H](c2sccc2-c2ccccc2)CN1C(=O)C(c1ccccc1)c1ccccc1` [Compound 107, (2S,4S)-1-(2,2-diphenylacetyl)-4-(3-phenylthiophen-2-yl)-pyrrolidine-2-carboxylic acid] registered a half-inhibitory concentration (IC50) of 461 nM.
Take `CN(C)S(=O)(=O)NC(=O)[C@@H]1C[C@H](OCCCc2ccccc2)CN1C(=O)C(c1ccccc1)c1ccccc1` [Compound 112, (2S,4S)—N—(N,N-dimethylsulfamoyl)-1-(2,2-diphenylacetyl)-4-(3-phenylpropoxy)pyrrolidine-2-carboxamide]: on AT1 receptor, the AT1 receptor binding entry is “—: No significant inhibition of binding of the radiolabelled ligand even at top concentration tested (10 μM). Compounds 6, 112, 136 and 138 were also analysed in a similar assay and showed no AT1 receptor binding at 10 μM”.
Consider `CN(CCCc1ccc(F)cc1)[C@H]1C[C@@H](C(N)=O)N(C(=O)C(c2ccccc2)c2ccccc2)C1` [Compound 136, (2S,4S)-1-(2,2-diphenylacetyl)-4-((3-(4-fluorophenyl)propyl)(methyl)amino)pyrrolidine-2-carboxamide], for which the IC50 on AT2 receptor is 89 nM. The AT1 receptor binding entry at AT1 receptor is “—: No significant inhibition of binding of the radiolabelled ligand even at top concentration tested (10 μM). Compounds 6, 112, 136 and 138 were also analysed in a similar assay and showed no AT1 receptor binding at 10 μM”.
Take `CN(CCCc1ccc(F)cc1)[C@H]1C[C@@H](C#N)N(C(=O)C(c2ccccc2)c2ccccc2)C1` [Compound 137, (2S,4S)-1-(2,2diphenylacetyl)-4-((3-(4-fluorophenyl)propyl)(methyl)amino)pyrrolidine-2-carbonitrile]: the IC50 at AT2 receptor amounted to 173 nM.

As a reminder, the IC50 is the concentration at which inhibition is half-maximal. A higher IC50 goes with weaker potency.
